Calls of active or inactive are those of the source. The calls are words filed in the database; no cut-off is given here.
What was measured:
[1] = Efflux ratio of apparent permeability across basolateral to apical over apical to basolateral side in human Caco-2 cells at 10 uM incubated for 2 hrs by LC-MS/MS analysis
[2] = Apparent permeability across apical to basolateral side in human Caco-2 cells at 10 uM incubated for 2 hrs by LC-MS/MS analysis
[3] = Apparent permeability across basolateral to apical side in human Caco-2 cells at 10 uM incubated for 2 hrs by LC-MS/MS analysis
[4] = Apparent permeability across apical to basolateral side in human Caco-2 cells assessed as drug recovery at 10 uM incubated for 2 hrs by LC-MS/MS analysis
[5] = Apparent permeability across basolateral to apical side in human Caco-2 cells assessed as drug recovery at 10 uM incubated for 2 hrs by LC-MS/MS analysis
[6] = Apparent permeability across apical to basolateral side in human Caco-2 cells assessed as drug recovery at 2 uM incubated for 2 hrs by LC-MS/MS analysis; format: ADME, cell-based; conditions: read-out: Drug recovery
[7] = Apparent permeability across apical to basolateral side in human Caco-2 cells at 2 uM incubated for 2 hrs by LC-MS/MS analysis; format: ADME, cell-based
[8] = biological target: T1, G-protein coupled bile acid receptor 1 (Homo sapiens, UniProt Q8TDU6); experiment: Agonist activity at human TGR5 expressed in HEK293T cells assessed as cAMP production incubated for 30 mins by HTRF assay; format: functional, cell-based
T1 sequence (Q8TDU6 whole entry): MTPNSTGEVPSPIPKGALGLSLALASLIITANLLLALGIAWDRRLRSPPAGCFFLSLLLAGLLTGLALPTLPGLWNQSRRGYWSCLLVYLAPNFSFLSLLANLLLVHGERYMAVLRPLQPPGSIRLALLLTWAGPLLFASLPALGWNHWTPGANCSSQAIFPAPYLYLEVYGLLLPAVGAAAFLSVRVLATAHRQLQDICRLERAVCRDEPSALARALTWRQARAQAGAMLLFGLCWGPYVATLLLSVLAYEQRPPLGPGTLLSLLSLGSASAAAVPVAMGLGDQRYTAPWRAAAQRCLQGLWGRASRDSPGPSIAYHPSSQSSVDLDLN

[9] = biological target: T2, G-protein coupled bile acid receptor 1 (Mus musculus, UniProt Q80SS6); experiment: Agonist activity at mouse TGR5 expressed in HEK293T cells assessed as cAMP production incubated for 30 mins by HTRF assay; format: cell-based
T2 sequence (Q80SS6 whole entry): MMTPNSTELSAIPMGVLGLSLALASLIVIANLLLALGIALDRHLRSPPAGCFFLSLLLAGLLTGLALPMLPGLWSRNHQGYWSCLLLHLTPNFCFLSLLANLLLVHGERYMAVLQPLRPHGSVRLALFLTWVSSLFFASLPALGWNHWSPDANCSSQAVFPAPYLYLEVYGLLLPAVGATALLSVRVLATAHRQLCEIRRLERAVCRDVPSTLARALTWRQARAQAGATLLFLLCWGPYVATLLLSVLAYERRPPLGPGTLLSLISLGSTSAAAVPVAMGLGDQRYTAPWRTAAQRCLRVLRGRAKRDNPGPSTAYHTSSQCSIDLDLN

Mus musculus [10] = experiment: Hypoglycemic activity in overnight fasted C57BL/6 mouse assessed as reduction in blood glucose level at 50 mg/kg, po preadministered with compound for 60 mins followed by first dose of glucose administration for 120 mins and measured after 120 mins of second glucose administration by oral glucose tolerance test; format: functional, organism-based; conditions: time 5.0 hrs
[11] = Toxicity in overnight fasted male C57BL/6J mouse assessed as increase in gallbladder volume at 50 mg/kg, po measured after 6 hrs; format: organism-based; conditions: in vivo
[12] = Toxicity in overnight fasted male C57BL/6J mouse assessed as increase in bile weight at 50 mg/kg, po measured after 6 hrs; format: organism-based; conditions: in vivo
Mus musculus [13] = experiment: Hypoglycemic activity in overnight fasted C57BL/6 mouse assessed as reduction in blood glucose AUC (0 to 120 min) at 50 mg/kg, po preadministered with compound for 60 mins followed by first dose of glucose administration for 120 mins and measured after 120 mins of second glucose administration by oral glucose tolerance test relative to control; format: functional; set-up: scale not given: the % may be the effect or the level left; conditions: time 5 hrs
Mus musculus [14] = experiment: Hypoglycemic activity in overnight fasted C57BL/6 mouse assessed as reduction in blood glucose AUC (180 to 300 min) at 50 mg/kg, po preadministered with compound for 60 mins followed by first dose of glucose administration for 120 mins and measured after 120 mins of second glucose administration by oral glucose tolerance test relative to control; format: functional; set-up: scale not given: the % may be the effect or the level left; conditions: time 5 hrs
Mus musculus [15] = experiment: Hypoglycemic activity in TGR5-/- mouse model assessed as reduction in blood glucose level at 50 mg/kg, po preadministered with compound for 60 mins followed by glucose administration and measured after 120 mins by oral glucose tolerance test; format: functional, organism-based; conditions: time 180.0 min
Mus musculus [16] = experiment: Insulin sensitizing activity in over-night fasted male C57BL/6J mouse model assessed as reduction in plasma glucose AUC level at 50 mg/kg, po preadministered with compound for 60 mins followed by insulin administration and measured after 120 mins by insulin tolerance test; format: functional, organism-based; conditions: time 180.0 min
[17] = biological target: T3, G-protein coupled bile acid receptor 1 (Homo sapiens) (UniProt Q8TDU6); experiment: Agonist activity at TGR5 in human NCI-H716 cells assessed as increase in GLP-1 secretion at 10 uM preincubated with vildagliptin followed by compound addition and measured after 2 hrs by GLP-1(7 to 36) ELISA; format: functional, cell-based; conditions: filed as agonist
T3 sequence (whole entry): T1 sequence (Q8TDU6 whole entry)

Mus musculus [18] = experiment: In vivo agonist activity at TGR5 in wildtype C57BL/6J mouse assessed as increase in GLP-1 secretion in blood at 50 mg/kg, po preadministered with vildagliptin for 1 hrs followed by compound administration and measured after 4 hrs; format: functional, organism-based
Mus musculus [19] = experiment: Induction of GLP-1 secretion in TGR5-/- mouse model at 50 mg/kg, po preadministered with vildagliptin for 1 hrs followed by compound administration and measured after 4 hrs; format: functional, organism-based
Mus musculus [20] = experiment: Hypoglycemic activity in diet-induced obese mouse model assessed as reduction in blood glucose level at 50 mg/kg, po administered every day and measured after 4 to 8 days; format: functional, organism-based; conditions: time 4-8 day
Mus musculus [21] = experiment: Hypoglycemic activity in diet-induced obese mouse model assessed as reduction in blood glucose AUC (0 to 12 days) level at 50 mg/kg, po administered every day and measured after 12 days relative to control; format: functional; set-up: scale not given: the % may be the effect or the level left; conditions: time 12 day
Mus musculus [22] = experiment: Hypoglycemic activity in non-fasted diabetic db/db mouse model assessed as decrease in plasma HbA1c level at 50 mg/kg, IG administered once daily for 28 days by glycosylated hemoglobin (GHb) assay; format: functional, organism-based; conditions: time 28.0 day
[23] = Toxicity in overnight fasted male C57BL/6J mouse assessed as increase in gallbladder volume at 50 mg/kg, iv measured after 2 hrs; format: organism-based; conditions: in vivo
[24] = Toxicity in overnight fasted male C57BL/6J mouse assessed as increase in bile weight at 50 mg/kg, iv measured after 2 hrs; format: organism-based; conditions: in vivo
[25] = Acute toxicity in overnight fasted male C57BL/6J mouse model assessed as behavioral abnormalities at 50 to 200 mg/kg, IG administered for 3 days; format: organism-based; conditions: in vivo, po, 72 h, dose 50-200 mg/kg, time 3 day
[26] = Acute toxicity in overnight fasted male C57BL/6J mouse model assessed as effect on LDH level in blood at 50 mg/kg, IG administered for 3 days; format: organism-based; conditions: in vivo, po, 72 h, time 3 day
[27] = Acute toxicity in overnight fasted male C57BL/6J mouse model assessed as effect on ALT level in blood at 50 mg/kg, IG administered for 3 days; format: organism-based; conditions: in vivo, po, 72 h, time 3 day
[28] = Acute toxicity in overnight fasted male C57BL/6J mouse model assessed as effect on AST level in blood at 50 mg/kg, IG administered for 3 days; format: organism-based; conditions: in vivo, po, 72 h, time 3 day
[29] = Acute toxicity in overnight fasted male C57BL/6J mouse model assessed as effect on ALP level in blood at 50 mg/kg, IG administered for 3 days; format: organism-based; conditions: in vivo, po, 72 h, time 3 day
[30] = Acute toxicity in overnight fasted male C57BL/6J mouse model assessed as effect on total protein level in blood at 50 mg/kg, IG administered for 3 days; format: organism-based; conditions: in vivo, po, 72 h, time 3 day
[31] = Acute toxicity in overnight fasted male C57BL/6J mouse model assessed as effect on uric acid level in blood at 50 mg/kg, IG administered for 3 days; format: organism-based; conditions: in vivo, po, 72 h, time 3 day
[32] = Acute toxicity in overnight fasted male C57BL/6J mouse model assessed as effect on urea level in blood at 50 mg/kg, IG administered for 3 days; format: organism-based; conditions: in vivo, po, 72 h, time 3 day
[33] = Acute toxicity in overnight fasted male C57BL/6J mouse model assessed as effect on […] level in blood at 50 mg/kg, IG administered for 3 days; format: organism-based; conditions: in vivo, po, 72 h, time 3 day
[34] = Acute toxicity in overnight fasted male C57BL/6J mouse model assessed as increase in ALT level in blood at 200 mg/kg, IG administered for 3 days; format: organism-based; conditions: in vivo, po, 72 h, time 3 day
[35] = Acute toxicity in overnight fasted male C57BL/6J mouse model assessed as increase in AST level in blood at 200 mg/kg, IG administered for 3 days; format: organism-based; conditions: in vivo, po, 72 h, time 3 day
[36] = Acute toxicity in overnight fasted male C57BL/6J mouse model assessed as increase in serum uric acid level at 200 mg/kg, IG administered for 3 days; format: organism-based; conditions: in vivo, po, 72 h, time 3 day
[37] = Acute toxicity in overnight fasted male C57BL/6J mouse model assessed as histopathological change in liver at 50 to 200 mg/kg, IG administered for 3 days by H and E staining based analysis; format: organism-based; conditions: in vivo, po, 72 h, dose 50-200 mg/kg, time 3 day
[38] = Apparent permeability across basolateral to apical side in human Caco-2 cells at 2 uM incubated for 2 hrs by LC-MS/MS analysis; format: ADME, cell-based
[39] = Apparent permeability across basolateral to apical side in human Caco-2 cells assessed as drug recovery at 2 uM incubated for 2 hrs by LC-MS/MS analysis; format: ADME, cell-based; conditions: read-out: Drug recovery
Homo sapiens = organism: Homo sapiens; experiment: Binding affinity to mucin (unknown origin) assessed as disappearance of peak at 9.793 retention time incubated for 2 hrs by HPLC analysis
Rattus norvegicus = organism: Rattus norvegicus; experiment: Muco-adhesive activity in rat intestine assessed as disappearance of peak at 9.793 retention time incubated for 2 hrs by HPLC analysis; format: functional

## C[C@H]1O[C@@H](O[C@H]2[C@@H](O)C[C@H](O[C@H]3[C@@H](O)C[C@H](O[C@H]4CC[C@@]5(C)[C@H](CC[C@@H]6[C@@H]5C[C@@H](O)[C@]5(C)[C@@H](C7=CC(=O)OC7)CC[C@]65O)C4)O[C@@H]3C)O[C@@H]2C)C[C@H](O)[C@@H]1O [DIGOXIN]
[1]
  efflux ratio at 2 h, 10 µM: 535
[2]
  Papp A→B at 2 h, 10 µM: 0.024 ×10⁻⁶ cm/s
[3]
  Papp B→A at 2 h, 10 µM: 13.1 ×10⁻⁶ cm/s
[4]
  recovery at 2 h, 10 µM: 102%
[5]
  recovery at 2 h, 10 µM: 103%

## CC(C)(C)NCC(O)COc1cccc2c1CC(O)C(O)C2 (configuration not stated) [NADOLOL]
[6]
  recovery at 2 h, 2 µM: 102%

## COCCc1ccc(OCC(O)CNC(C)C)cc1 (configuration not stated) [METOPROLOL]
[7]
  Papp A→B at 2 h, 2 µM: 18.8 ×10⁻⁶ cm/s
[6]
  recovery at 2 h, 2 µM: 104%

## O=C(CCCCCN1C(=O)C=CC1=O)NCCCCCCCCNC(=O)CCc1cc(Cl)c(Oc2ccncc2C(=O)N2CCN(C3CC3)c3ccccc32)cc1Cl
[8]
  EC50: 355 nM
[9]
  EC50: 400 nM
Mus musculus [10]
  Activity: inactive

## O=C(c1cnccc1Oc1cc(Cl)ccc1Cl)N1CCN(C2CC2)c2ccccc21
[11]
  Activity: Toxic
[12]
  Activity: Toxic

## O=C(CCCCCN1C(=O)C=CC1=O)NCCCCCCNC(=O)CCc1cc(Cl)c(Oc2ccncc2C(=O)N2CCN(C3CC3)c3ccccc32)cc1Cl
[8]
  EC50: 166 nM
[9]
  EC50: 138 nM
Mus musculus [10]
  Activity: Active
Mus musculus [13]
  Activity: 19.5%
Mus musculus [14]
  Activity: 15.9%
Mus musculus [15]
  Activity: inactive
Mus musculus [16]
  Activity: Active
[17]
  Activity: Active
Mus musculus [18]
  Activity: Active
Mus musculus [19]
  Activity: inactive
Mus musculus [20]
  Activity: Active
Mus musculus [21]
  Activity: 10.4%
Mus musculus [22]
  Activity: Active
[11]
  Activity: Non-toxic
[12]
  Activity: Non-toxic
[23]
  Activity: Toxic
[24]
  Activity: Toxic
[25]
  Activity: Non-toxic
[26]
  Activity: Non-toxic
[27]
  Activity: Non-toxic
[28]
  Activity: Non-toxic
[29]
  Activity: Non-toxic
[30]
  Activity: Non-toxic
[31]
  Activity: Non-toxic
[32]
  Activity: Non-toxic
[33]
  Activity: Non-toxic
[34]
  Activity: Toxic
[35]
  Activity: Toxic
[36]
  Activity: Toxic
[37]
  Activity: Non-toxic
[7]
  Papp A→B at 2 h, 2 µM: < 0.48 ×10⁻⁶ cm/s
[38]
  Papp B→A at 2 h, 2 µM: < 0.432 ×10⁻⁶ cm/s
[6]
  recovery at 2 h, 2 µM: < 1.1%
[39]
  recovery at 2 h, 2 µM: < 22.8%
Homo sapiens
  Activity: Active
Rattus norvegicus
  Activity: Active

## O=C(CCCCCN1C(=O)C=CC1=O)NCCCCNC(=O)CCc1cc(Cl)c(Oc2ccncc2C(=O)N2CCN(C3CC3)c3ccccc32)cc1Cl
[8]
  EC50: 200 nM
[9]
  EC50: 835 nM
Mus musculus [10]
  Activity: inactive

Source: ChEMBL document CHEMBL6120961, “Design, Synthesis, and Biological Evaluation of Covalently Mucoadhesive Derivatives as Nonsystemic Intestine-Targeted TGR5 Agonists” (J Med Chem, 2024)
